# According to EP4445909B1, “PHARMACEUTICAL FORMULATION CONSISTING OF C-PEPTIDE COMBINED WITH A BISPHOSPHONATE IN A SINGLE FORM AND ITS USE IN THE TREATMENT OF OSTEOSARCOPENIA” (Università Degli Studi Magna Graecia di Catanzaro, priority 2023, dated 2026):
# Tests used:
# Assay type in all cases: in vivo
# [1] = system: muscle fibers of the Gastrocnemius (GC), Thiabialis (TA) and the long finger extensor muscle (EDL); assay: Muscle fibre morphometry (CSA, perimeter, Minimum Feret diameter) after C-Peptide administration in diabetic rats; settings: 72 nmol/kg/24 h for 42 days
# Protocol: The experimental tests carried out by the Applicant have shown that the administration of 72 nmol/kg/24 h of C-Peptide for 42 days improves the cross-sectional area (CSA), the perimeter and the Minimum Feret diameter of the muscle fibers of the Gastrocnemius (GC), Thiabialis (TA) and the long finger extensor muscle (EDL) in diabetic rats. Specifically, the mean CSA of the GC fibers decreased by 39.5% in the diabetic group, while only 6.6% in the rats of the C-peptide group. The CSA of the TA and EDL muscles was reduced, in the C-peptide group, by 10% and 11%, respectively, while a reduction of 65% and 45% occurred in the diabetic group, compared to the control animals. Similar results were obtained with the other parameters (perimeter and Minimum Feret diameter).
# serum ubiquitin = assay: Serum ubiquitin in diabetic rats after C-peptide administration; settings: 72 nmol/kg/24 h for 42 days
# bone = assay: Micro-CT of trabecular bone in diabetic rats after C-peptide administration; settings: 72 nmol/kg/24 h, compared to the diabetes only group (D-CTR)
substance,measurement,setting,value
C-peptide,"cross-sectional area (CSA), perimeter and Minimum Feret diameter of the muscle fibers of GC, TA and EDL",[1],improves
same,mean CSA of the GC fibers decreased,"[1]; Gastrocnemius, diabetic group decreased by 39.5%",6.6%
same,CSA of the EDL muscle reduced,"[1]; compared to the control animals, diabetic group 45%",11%
same,CSA of the TA muscle reduced,"[1]; compared to the control animals, diabetic group 65%",10%
same,"serum ubiquitin, induced by diabetes",serum ubiquitin,prevents the increase
same,trabecular spaces,bone; p=0.01,reduction
same,trabecular thickness,bone; p=0.04,better
